Measured values as given in patent publication US9346778B2, “Carbofluorescein lactone ion indicators and their applications” (AAT Bioquest, Inc., priority 2007, dated 2016).
Entries after “also recorded” stand apart in the source; their conditions may differ.

Assays:
[1] = Spectral property comparison (excitation and emission wavelength) of indicator acids; assay type: physicochemical
Text: The red-shift excitation and emission wavelengths provide a great advantage for the use of current invention in the high throughput screening of new drug candidates since there are many fluorescent compounds of short wavelength in the screening compound libraries. Fluo-3 AM and Fluo-4 AM are currently used in the high throughput screening of new drug candidates, but their short wavelength overlap with the fluorescence of some fluorescent compounds in the screening compound libraries, causing severe interference.

CHO cells = test: Cell-induced absorption spectral shift of indicator AM esters, absence vs presence of CHO cells; assay type: cell-based; conditions: for Cell-Induced Excitation Wavelength Shift (nm): absence vs presence of CHO cells
Text: (§1) FIG. 7. The cell-induced absorption spectral shift comparison of Fluo-3 AM and Compound 16. The absorption spectra are normalized at their maximum absorption peak. Solid lines represent the absorption spectra of Compound 16 in the absence of CHO cells (left) and in the presence of CHO cells (right) respectively. Dot lines represent the absorption spectra of Fluo-3 AM in the absence of CHO cells (left) and in the presence of CHO cells (right) respectively.
as §1, with “8.” for “7.”, “Fluo-4” for “Fluo-3”, “85.” for “16.”, “85” for “16”
Fluo-3 AM and Fluo-4 AM are predominantly used for monitoring intracellular calcium signal. However, Fluo-3 AM, Fluo-4 AM and their cell-hydrolyzed products (Fluo-3 and Fluo-4) can be simultaneously excited by the same excitation source (see FIGS. 7 and 8), causing high assay background. The present application is directed to a family of fluorescent dyes that are useful for preparing fluorescent metal ion indicators. The indicators include a carbofluorescein lactone fluorophore that is incorporated with an ionophore, and are useful for the detection, discrimination and quantification of metal cations.
In one aspect of the invention, the disclosed calcium indicators have the minimal assay background in their masked form since their non-hydrolyzed AM esters cannot be excited in the range of visible wavelengths. […] The fluorescence outside cells generates the detrimental assay background. It is evident that the calcium indicators of the invention (e.g., Compound 16) have unexpected spectral properties that enable more sensitive detection of calcium in cells compared to the existing fluorescein-based calcium indicators (such as Fluo-3 AM).
It is evident that the calcium indicators of the invention (e.g., Compound 85) have unexpected spectral properties that enable more sensitive detection of calcium in cells compared to the existing fluorescein-based calcium indicators (such as Fluo-4 AM).

[2] = Calcium response of indicator measured in fluorescence excitation/emission in PBS buffer; assay type: binding; conditions: 5 μM in PBS buffer, excited at 555 nm
Description: FIG. 5. Calcium responses of Compound 79 (5 μM) measured in fluorescence excitation in PBS buffer solution. The calcium concentrations are indicated in the graph in the unit of μM.
FIG. 6. Calcium responses of Compound 79 (5 μM) measured in fluorescence emission in PBS buffer solution. The calcium concentrations are indicated in the graph in the unit of μM.

[3] = system: CHO cells stably transfected with muscarinic receptor 1; test: Calcium flux assay in cells loaded with indicator AM ester, ATP stimulation, microplate reader or imaging; assay type: cell-based; conditions: compared with Fluo-4 AM
Description: In yet another aspect of the invention, the fluorescent ion indicators are used in a method to measure calcium flux. Cells (e.g., CHO cells) stably transfected with muscarinic receptor 1 are plated—e.g., at 60,000 cells per 100 μl per well in F12 with 5% FBS and 1% glutamine in a 96-well black wall/clear bottom Costar plate—and incubated (e.g., in 5% CO2 at 37° C. overnight). The growth medium is removed and the cells are incubated with a fluorescent ion indicator (e.g., with 100 μl/well of 1-8 μM Fluo-4 AM or Compound 85 in Hanks and HEPES buffer for 1 hour at room temperature) with or without probenecid. […]
Calcium flux assays are preferred methods in drug discovery for screening G protein coupled receptors (GPCR). The fluorescent indicators of the invention provide a homogeneous fluorescence-based assay for detecting the intracellular calcium mobilization. […] When the sample cells are stimulated with screening compounds, the receptor triggers a release of intracellular calcium, which then greatly increases the fluorescence of the intracellular indicators. The combination of long wavelength fluorescence properties, high sensitivity, and often a >100 times increase in fluorescence upon binding with calcium makes the disclosed indicators well-suited for measurement of cellular calcium. […]

Compound	Emission Wavelength (nm) [1]	Excitation Wavelength (nm) [1]	Residual absorption of dye AM at the maximum excitation of dye acid (CHO cells)	Cell-Induced Excitation Wavelength Shift (nm) (CHO cells)	further results
Cc1ccc(N(CC(=O)O)CC(=O)O)c(OCCOc2cc(C3=C4C=C(Cl)C(=O)C=C4C(C)(C)c4cc(O)c(Cl)cc43)c(C(=O)O)cc2N(CC(=O)O)CC(=O)O)c1 [Compound 11]	584 nm	558 nm	–	–	–
CC(=O)OCOC(=O)CN(CC(=O)OCOC(C)=O)c1ccc(C)cc1OCCOc1cc2c(cc1N(CC(=O)OCOC(C)=O)CC(=O)OCOC(C)=O)C(=O)OC21c2cc(Cl)c(OC(C)=O)cc2C(C)(C)c2cc(OC(C)=O)c(Cl)cc21 [Compound 16]	–	–	0%	278 nm	absorption of masked AM form at excitation wavelength (CHO cells; at 555 nm): essentially no absorption
Cc1ccc(N(CC(=O)O)CC(=O)O)c(OCCOc2cc(C3=C4C=C(F)C(=O)C=C4C(C)(C)c4cc(O)c(F)cc43)c(C(=O)O)cc2N(CC(=O)O)CC(=O)O)c1 [Compound 79]	582 nm	554 nm	–	–	calcium binding [2]: binds calcium
CC(=O)OCOC(=O)CN(CC(=O)OCOC(C)=O)c1ccc(C)cc1OCCOc1cc2c(cc1N(CC(=O)OCOC(C)=O)CC(=O)OCOC(C)=O)C(=O)OC21c2cc(F)c(OC(C)=O)cc2C(C)(C)c2cc(OC(C)=O)c(F)cc21 [Compound 85]	–	–	0%	277 nm	absorption of masked AM form at excitation wavelength (CHO cells; at 555 nm): essentially no absorption; fluorescence intensity enhancement upon calcium stimulation ([3]; absence of probenecid): much greater than that of Fluo-4 AM; also recorded: better fluorescence intensity enhancement upon calcium stimulation than that of Fluo-4 AM; loading into cells [3]: load into cells much better than Fluo-4 AM
CC(=O)OCOC(=O)CN(CC(=O)OCOC(C)=O)c1ccc(C)cc1OCCOc1cc(-c2c3cc(Cl)c(=O)cc-3oc3cc(OCOC(C)=O)c(Cl)cc23)ccc1N(CC(=O)OCOC(C)=O)CC(=O)OCOC(C)=O [Fluo-3 AM, reference compound]	–	–	7.6%	36 nm	absorption of masked AM form at excitation wavelength (CHO cells; at 488 nm): substantial absorption

Further lines, with some results ahead:

Emission Wavelength (nm) [1]	Excitation Wavelength (nm) [1]	Residual absorption of dye AM at the maximum excitation of dye acid (CHO cells)	Cell-Induced Excitation Wavelength Shift (nm) (CHO cells)	Compound	further results
526 nm	504 nm	–	–	Cc1ccc(N(CC(=O)O)CC(=O)O)c(OCCOc2cc(-c3c4cc(Cl)c(=O)cc-4oc4cc(O)c(Cl)cc34)ccc2N(CC(=O)O)CC(=O)O)c1 [Fluo-3, reference compound]	–
–	–	7.8%	38 nm	CC(=O)OCOC(=O)CN(CC(=O)OCOC(C)=O)c1ccc(C)cc1OCCOc1cc(-c2c3cc(F)c(=O)cc-3oc3cc(OCOC(C)=O)c(F)cc23)ccc1N(CC(=O)OCOC(C)=O)CC(=O)OCOC(C)=O [Fluo-4 AM, reference compound]	absorption of masked AM form at excitation wavelength (CHO cells; at 488 nm): substantial absorption
515 nm	493 nm	–	–	Cc1ccc(N(CC(=O)O)CC(=O)O)c(OCCOc2cc(-c3c4cc(F)c(=O)cc-4oc4cc(O)c(F)cc34)ccc2N(CC(=O)O)CC(=O)O)c1 [Fluo-4, reference compound]	–
